In patent US20250049798A1, “WEE1 PROTEIN KINASE DEGRADATION AGENT AND USE THEREOF” (HANGZHOU GLUBIO PHARMACEUTICAL CO. LTD., priority 2021, published 2025) one finds DC50, Dmax and IC50 data, which are given here for 30 molecules.

In one experiment the target is HiBiT tagged Wee1 (Homo sapiens, UniProt P30291). Briefly: Wee1 protein degradation assay (HiBiT assay). The experiment is classed as cell-based. Particulars: engineered HT-1080 cells, 20 hours; for Dmax: maximum percentage of Wee1 degradation, read-out: HiBiT Wee1: Dmax. A general note: With HiBiT, luminescence reflects the tagged protein that the partner subunit can reach.

For a further experiment, the system named is NCI-H1048 cells. Briefly: NCI-H1048 cell proliferation assay (CTG assay). In kind it is cell-based. Conditions: Homo sapiens, 120 hours, read-out: CTG cellular assay_H1048: IC50. The procedure:
NCI-H1048 Cell Proliferation Assay (CTG Assay) The following is an example of an assay that can be used to determine the anti-proliferative activity of Wee1 PROTACs in a small cell lung cancer cell line, NCI-H1048 (ATCC Cat #CRL-5853). This cell line was cultured in RPMI-1640 medium supplemented with 10% FBS. About 1,200 NCI-H1048 cells in 50 μL of culture medium were seeded into a 384-well plate (Cat #3764, Corning), pre-spotted with compounds using the Echo 650 liquid handler (Beckman). The dose-response-curve (DRC) typically has 10-points with a highest concentration at 10 μM, and half-log diluted to as low as 0.316 nM, plus a DMSO control. Assay plates were incubated at 37° C. with 5% CO2 for 120 hours. After that, 20 μL of the CellTiter-Glo (CTG) Luminescent Cell Viability Assay Reagent (Cat #G7573, Promega) was added to each well and incubated at room temperature for 30 minutes. Luminescence was then measured with Pherastar microplate reader (BMG Labtech). All percentage of cell growth inhibition curves were processed using Collaborative Drug Discovery Vault.
Cell viability reads in compound-treated wells were normalized to that of DMSO control and expressed as Percent of Control (PoC, y). A four Parameter Logistic Model was used to determine the compound's EC50 and DC50, using the following equation: […]

Sequence of HiBiT tagged Wee1 (P30291 whole entry): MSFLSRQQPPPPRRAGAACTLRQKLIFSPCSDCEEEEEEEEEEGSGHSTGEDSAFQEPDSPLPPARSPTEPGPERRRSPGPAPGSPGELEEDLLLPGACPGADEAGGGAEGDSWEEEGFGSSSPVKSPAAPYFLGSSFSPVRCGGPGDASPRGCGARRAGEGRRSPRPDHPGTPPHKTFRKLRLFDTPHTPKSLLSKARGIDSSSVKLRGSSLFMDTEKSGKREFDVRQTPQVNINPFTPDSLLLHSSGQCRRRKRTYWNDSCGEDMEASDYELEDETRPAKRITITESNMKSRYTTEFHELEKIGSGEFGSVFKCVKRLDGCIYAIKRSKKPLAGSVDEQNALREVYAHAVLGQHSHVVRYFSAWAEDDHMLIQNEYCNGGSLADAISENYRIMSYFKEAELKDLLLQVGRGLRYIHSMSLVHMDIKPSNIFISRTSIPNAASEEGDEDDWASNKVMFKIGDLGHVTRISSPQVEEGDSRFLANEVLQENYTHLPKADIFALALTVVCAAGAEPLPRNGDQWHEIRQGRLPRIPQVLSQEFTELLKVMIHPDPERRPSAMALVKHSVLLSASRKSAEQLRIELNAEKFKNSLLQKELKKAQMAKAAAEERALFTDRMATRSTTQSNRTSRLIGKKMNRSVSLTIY

For `O=C1CCC(N2C(=O)c3cccc(NCCCN4CCN(c5ccc(Nc6ncc7c(=O)n(-c8c(Cl)cccc8Cl)c8nccn8c7n6)cc5)CC4)c3C2=O)C(=O)N1` (centres unmarked) [Compound 2], on HiBiT tagged Wee1, the DC50 (as a rule, the midpoint of the concentration-degradation curve) is under 100 nM and the Dmax (as a rule, the greatest extent of degradation seen) was in the range of 50 to 75%. Further, the IC50 (in general, the concentration that inhibits the measured activity by half) in the experiment with NCI-H1048 cells lay within 25 to 100 nM.
In the case of `C=CCn1c(=O)c2cnc(Nc3ccc(N4CCN(CC5CCN(c6cc7c(cc6F)c(N6CCC(=O)NC6=O)nn7C)CC5)CC4)nc3)nc2n1-c1ccc2c(n1)[C@@](O)(CC)CC2` [Compound 194], at HiBiT tagged Wee1, the DC50 is under 100 nM and the Dmax is over 75%. Moreover, the concentration for half-maximal inhibition (IC50) with NCI-H1048 cells was at most 25 nM.
As to `C=CCn1c(=O)c2cnc(Nc3ccc(N4CCN(C5CC6(C5)CN(c5ncc(NC7CCC(=O)NC7=O)cc5F)C6)CC4)cc3)nc2n1-c1ccc2c(n1)[C@@](O)(CC)CC2` (some centres unmarked) [Compound 185], on HiBiT tagged Wee1, the DC50 is under 100 nM and the Dmax is over 75%. Moreover, in the experiment on NCI-H1048 cells, the IC50 was at most 25 nM.
In the case of `C=CCn1c(=O)c2cnc(Nc3ccc(N4CCN(CC5CCN(c6ccc7c(c6)C(=O)N(C6CCC(=O)NC6=O)C7=O)CC5)CC4)cc3)nc2n1-c1cccc(C(C)(C)O)n1` (centres unmarked) [Compound 8], on HiBiT tagged Wee1, the DC50 is under 100 nM and the Dmax lay within 50 to 75%. In addition, in the experiment on NCI-H1048 cells, the IC50 is 25 to 100 nM.
The like results for `C=CCn1c(=O)c2cnc(Nc3ccc(N4CCN(CC5CCN(c6cc7c(cc6F)c(N6CCC(=O)NC6=O)nn7C)CC5)CC4)cc3)nc2n1-c1ccc2c(n1)[C@@](O)(CC)CC2` [Compound 161] were, in that order, under 100 nM, over 75% and at most 25 nM.
Regarding `C=CCn1c(=O)c2cnc(Nc3ccc(N4CCN(CC5CCN(c6ccc7c(N8CCC(=O)NC8=O)nn(C)c7c6F)CC5)CC4)cc3)nc2n1-c1ccc2c(n1)[C@](C)(O)CC2` [Compound 200], on HiBiT tagged Wee1, the DC50 is under 100 nM and the Dmax is over 75%. For the same molecule, in the experiment with NCI-H1048 cells, the IC50 was at most 25 nM.
For `C[C@]1(O)CC/C=C\Cn2c(=O)c3cnc(Nc4ccc(N5CCN(CC6CCN(c7ccc(NC8CCC(=O)NC8=O)cc7F)CC6)CC5)cc4)nc3n2-c2cccc1n2` (single isomer, unassigned) [Compound 141], on HiBiT tagged Wee1, the 50% degradation concentration (DC50) was under 100 nM and the Dmax was over 75%. In the experiment with NCI-H1048 cells, the IC50 was at most 25 nM.
The like results for `C=CCn1c(=O)c2cnc(Nc3ccc(N4CCN(C5CCN(c6ncc(NC7CCC(=O)NC7=O)cc6F)CC5)CC4)cc3)nc2n1-c1ccc2c(n1)[C@@](O)(CC)CC2` (some centres unmarked) [Compound 182] were, in that order, under 100 nM, over 75% and at most 25 nM.
The like results for `C=CCn1c(=O)c2cnc(Nc3ccc(N4CCC(CN5CCC(c6ccc7c(C8CCC(=O)NC8=O)nn(C)c7c6)CC5)CC4)cc3)nc2n1-c1cccc(C(C)(C)O)n1` (centres unmarked) [Compound 96] were, in that order, under 100 nM, 50 to 75% and at most 25 nM.
For `C=CCn1c(=O)c2cnc(Nc3ccc(N4CCN(CC5CCN(c6ccc7c(N8CCC(=O)NC8=O)nn(C)c7c6)CC5)[C@H](C)C4)cc3)nc2n1-c1ccc2c(n1)[C@@](O)(CC)CC2` [Compound 174], at HiBiT tagged Wee1, the DC50 was under 100 nM and the Dmax lay in the range of 50 to 75%. Also, the IC50 with NCI-H1048 cells is at most 25 nM.
For `C=CCn1c(=O)c2cnc(Nc3ccc(C4CCN(CC5CCN(c6ccc7c(N8CCC(=O)NC8=O)nn(C)c7c6)CC5)CC4)cc3)nc2n1-c1cccc(C(C)(C)O)n1` [Compound 104], in that order: under 100 nM, over 75% and at most 25 nM.
For the molecule `C=CCn1c(=O)c2cnc(Nc3ccc(N4CCN(CC5CCN(c6ncc(NC7CCC(=O)NC7=O)cc6F)CC5)CC4)cc3)nc2n1-c1ccc2c(n1)[C@@](O)(CC)CC2` (some centres unmarked) [Compound 180], on HiBiT tagged Wee1, the DC50 was under 100 nM and the Dmax is over 75%. Besides, the IC50 with NCI-H1048 cells is at most 25 nM.
For the molecule `C=CCn1c(=O)c2cnc(Nc3ccc(C4CCN(CC5CCN(c6ccc(NC7CCC(=O)NC7=O)cc6)CC5)CC4)cc3)nc2n1-c1cccc(C(C)(C)O)n1` (centres unmarked) [Compound 85], at HiBiT tagged Wee1, the DC50 is under 100 nM and the Dmax is 50 to 75%. Moreover, in the experiment with NCI-H1048 cells, the IC50 is at most 25 nM.
In the case of `C=CCn1c(=O)c2cnc(Nc3ccc(N4CCN(CC5CCN(c6ccc(NC7CCC(=O)NC7=O)cc6F)CC5)CC4)cc3)nc2n1-c1ccc2c(n1)[C@](C)(O)CC2` (single isomer, unassigned) [Compound 152-A], the DC50 on HiBiT tagged Wee1 is under 100 nM. The IC50 in the experiment on NCI-H1048 cells is at most 25 nM.
In the case of `C=CCn1c(=O)c2cnc(Nc3ccc(N4CCN(CC5CCN(c6ccc(NC7CCC(=O)NC7=O)cc6F)CC5)CC4)c(F)c3)nc2n1-c1cccc(C(C)(C)O)n1` (centres unmarked) [Compound 125], on HiBiT tagged Wee1, the DC50 is under 100 nM and the Dmax was over 75%. Also, the IC50 with NCI-H1048 cells lay within 25 to 100 nM.
For the molecule `C=CCn1c(=O)c2cnc(Nc3ccc4c(c3)CN(CC3CCN(c5ccc6c(c5)C(=O)N(C5CCC(=O)NC5=O)C6=O)CC3)CC4)nc2n1-c1cccc(C(C)(C)O)n1` (centres unmarked) [Compound 7], at HiBiT tagged Wee1, the DC50 was over 1000 nM and the Dmax was under 50%. Further, in the experiment on NCI-H1048 cells, the IC50 is over 100 nM.
Take `C=CCn1c(=O)c2cnc(Nc3ccc(C4CCN(CC5CCN(c6ccc7c(C8CCC(=O)NC8=O)nn(C)c7c6)CC5)CC4)cc3)nc2n1-c1cccc(C(C)(C)O)n1` (centres unmarked) [Compound 111]: at HiBiT tagged Wee1, the DC50 is under 100 nM and the Dmax was in the range of 50 to 75%. Besides, in the experiment with NCI-H1048 cells, the IC50 was at most 25 nM.
On to `C=CCn1c(=O)c2cnc(Nc3ccc(N4CCN(CC5CCN(c6ccc(NC7CCC(=O)NC7=O)cc6F)CC5)CC4)cc3)nc2n1-c1ccc(=O)n(C(C)C)n1` (centres unmarked) [Compound 158], for which, at HiBiT tagged Wee1, the DC50 was under 100 nM and the greatest degradation seen (Dmax) was over 75%. Also, the IC50 in the experiment on NCI-H1048 cells is at most 25 nM.
Consider `C=CCn1c(=O)c2cnc(Nc3ccc(C4CCN(CC5CCN(c6cccc7c6n(C)c(=O)n7C6CCC(=O)NC6=O)CC5)CC4)cc3)nc2n1-c1ccc2c(n1)[C@@](O)(CC)CC2` (some centres unmarked) [Compound 108], for which, at HiBiT tagged Wee1, the DC50 was under 100 nM and the Dmax fell in the range of 50 to 75%. In the experiment on NCI-H1048 cells, the IC50 is at most 25 nM.
`C=CCn1c(=O)c2cnc(Nc3ccc(N4CCN(CC5CCN(c6ccc(NC7CCC(=O)NC7=O)cc6F)CC5)CC4)cc3)nc2n1-c1ccc2c(n1)[C@@](O)(CC)CC2` (single isomer, unassigned) [Compound 150-A]: at HiBiT tagged Wee1, the DC50 was under 100 nM and the Dmax is over 75%. For the same molecule, the IC50 in the experiment on NCI-H1048 cells is at most 25 nM.
For the molecule `C=CCn1c(=O)c2cnc(Nc3ccc(N4CCN(CC5CCN(c6ccc(NC7CCC(=O)NC7=O)cc6F)CC5)CC4)cc3)nc2n1-c1ccc2c(n1)[C@](C)(O)CC2` (single isomer, unassigned) [Compound 152-B], on HiBiT tagged Wee1, the DC50 was under 100 nM and the Dmax was over 75%. Besides, the IC50 with NCI-H1048 cells was at most 25 nM.
In the case of `C=CCn1c(=O)c2cnc(Nc3ccc(N4CC5(CC(N6CCN(c7ccc(NC8CCC(=O)NC8=O)cc7F)CC6)C5)C4)cc3)nc2n1-c1ccc2c(n1)[C@@](O)(CC)CC2` (some centres unmarked) [Compound 173], on HiBiT tagged Wee1, the DC50 is under 100 nM and the Dmax is over 75%. In addition, in the experiment on NCI-H1048 cells, the IC50 is at most 25 nM.
For `C=CCn1c(=O)c2cnc(Nc3ccc(N4CCC(N5CCN(c6ccc(NC7CCC(=O)NC7=O)cc6F)CC5)CC4)cc3)nc2n1-c1cccc(C(C)(C)O)n1` (centres unmarked) [Compound 67], in that order: under 100 nM, over 75% and at most 25 nM.
In the case of `C=CCn1c(=O)c2cnc(Nc3ccc(N4CCN(CC5CCN(c6ccc7c(N8CCC(=O)NC8=O)nn(C)c7c6)CC5)CC4)c(C)c3)nc2n1-c1ccc2c(n1)[C@](C)(O)CC2` [Compound 137], on HiBiT tagged Wee1, the DC50 is under 100 nM and the Dmax is over 75%. In the experiment with NCI-H1048 cells, the IC50 was at most 25 nM.
Consider `O=C1CCC(N2C(=O)c3ccc(N4CCC(CN5CCN(c6ccc(Nc7ncc8c(=O)n(-c9c(Cl)cccc9Cl)c9nccn9c8n7)cc6)CC5)CC4)cc3C2=O)C(=O)N1` (centres unmarked) [Compound 3], for which, at HiBiT tagged Wee1, the DC50 is under 100 nM and the Dmax was in the range of 50 to 75%. The IC50 in the experiment with NCI-H1048 cells lay within 25 to 100 nM.
On to `C=CCn1c(=O)c2cnc(Nc3ccc(N4CCC(CN5CCC(c6ccc7c(c6)n(C)c(=O)n7C6CCC(=O)NC6=O)CC5)CC4)cc3)nc2n1-c1cccc(C(C)(C)O)n1` (centres unmarked) [Compound 52], for which, at HiBiT tagged Wee1, the DC50 is under 100 nM and the Dmax is 50 to 75%. Also, the IC50 in the experiment with NCI-H1048 cells was at most 25 nM.
With `C=CCn1c(=O)c2cnc(Nc3ccc(C4CCN(C[C@@H]5CCN(c6ccc7c(c6)C(=O)N(C6CCC(=O)NC6=O)C7=O)C5)CC4)cc3)nc2n1-c1cccc(C(C)(C)O)n1` (some centres unmarked) [Compound 37], at HiBiT tagged Wee1, the DC50 was under 100 nM and the Dmax was in the range of 50 to 75%. Also, the half-inhibitory concentration (IC50) in the experiment on NCI-H1048 cells was 25 to 100 nM.
As to `C=CCn1c(=O)c2cnc(Nc3ccc(C4CCN(CC5CCN(c6ccc7c(c6)C(=O)N(C6CCC(=O)NC6=O)C7=O)CC5)CC4)cc3)nc2n1-c1cccc(C(C)(C)O)n1` (centres unmarked) [Compound 21], at HiBiT tagged Wee1, the DC50 was under 100 nM and the Dmax lay within 50 to 75%. Moreover, the IC50 in the experiment with NCI-H1048 cells was in the range of 25 to 100 nM.
The like results for `C=CCn1c(=O)c2cnc(Nc3ccc(N4CCN(CC5CCN(c6cccc7c(C8CCC(=O)NC8=O)nn(C)c67)CC5)CC4)cc3)nc2n1-c1cccc(C(C)(C)O)n1` (centres unmarked) [Compound 117] were, in that order, under 100 nM, over 75% and at most 25 nM.
As to `C=CCn1c(=O)c2cnc(Nc3ccc(N4CCC(N5CCC(c6ccc(NC7CCC(=O)NC7=O)cc6)CC5)CC4)cc3)nc2n1-c1cccc(C(C)(C)O)n1` (centres unmarked) [Compound 70], at HiBiT tagged Wee1, the DC50 was under 100 nM and the Dmax is over 75%. Also, the IC50 in the experiment on NCI-H1048 cells was at most 25 nM.
